Reference: the supplement of paper PMC10307832

Legend:
Assay in all cases: relative viability (nuclei count vs DMSO), 5 days (fraction); higher = more cells survive
ABC-1 = test system: ABC-1
Method in brief: (§1)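 Relative viability was taken as the ratio of nuclei in treated wells to nuclei in vehicle wells. Lung cancer cell lines in 1536-well plates received compounds by pin tool one day after seeding, either one drug alone or a fixed anchor-drug dose plus five library-drug doses (not always all listed) in √10 steps. Nuclei were counted on 4× images after 5 days of treatment, and values are medians of duplicate plates.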

BEN = test system: BEN
Method in brief: as §1

EPLC-272H = test system: EPLC-272H
Method in brief: as §1

HCC-827 = test system: HCC-827
Method in brief: as §1

HOP-62 = test system: HOP-62
Method in brief: as §1

LU99A = test system: LU99A
Method in brief: as §1

NCI-H1355 = test system: NCI-H1355
Method in brief: as §1

NCI-H1666 = test system: NCI-H1666
Method in brief: as §1

NCI-H1792 = test system: NCI-H1792
Method in brief: as §1

NCI-H1975 = test system: NCI-H1975
Method in brief: as §1

NCI-H2170 = test system: NCI-H2170
Method in brief: as §1

NCI-H23 = test system: NCI-H23
Method in brief: as §1

NCI-H2405 = test system: NCI-H2405
Method in brief: as §1

NCI-H3122 = test system: NCI-H3122
Method in brief: as §1

NCI-H322M = test system: NCI-H322M
Method in brief: as §1

NCI-H358 = test system: NCI-H358
Method in brief: as §1

NCI-H520 = test system: NCI-H520
Method in brief: as §1

NCI-H596 = test system: NCI-H596
Method in brief: as §1

NCI-H647 = test system: NCI-H647
Method in brief: as §1

NCI-H727 = test system: NCI-H727
Method in brief: as §1

NCI-H838 = test system: NCI-H838
Method in brief: as §1

PC-14 = test system: PC-14
Method in brief: as §1

UMC-11 = test system: UMC-11
Method in brief: as §1

In the case of `Cc1cnc(-c2cnc(NCCNc3ccc(C#N)cn3)nc2-c2ccc(Cl)cc2Cl)[nH]1` + CS(=O)(=O)CCNCc1ccc(-c2ccc3ncnc(Nc4ccc(OCc5cccc(F)c5)c(Cl)c4)c3c2)o1 [Lapatinib] (partner 2 µM), the relative viability (ABC-1; first compound 0.08 µM) is reported as 1.22, the relative viability (ABC-1; first compound 0.253 µM) is reported as 0.969 and the relative viability (ABC-1; first compound 0.8 µM) is reported as 1.09. It also gave a relative viability (ABC-1; first compound 2.53 µM) of 1.11, a relative viability (BEN; first compound 0.08 µM) of 0.615 and a relative viability (BEN; first compound 0.253 µM) of 0.686. For the same molecule, the relative viability (BEN; first compound 0.8 µM) was 0.705, the relative viability (BEN; first compound 2.53 µM) was 0.621 and the relative viability (EPLC-272H; first compound 0.08 µM) was 1.08. The relative viability (EPLC-272H; first compound 0.253 µM) was 0.88, the relative viability (EPLC-272H; first compound 0.8 µM) was 0.599 and the relative viability (EPLC-272H; first compound 2.53 µM) was 0.946. The relative viability (HCC-827; first compound 0.08 µM) was 0.189, the relative viability (HCC-827; first compound 0.8 µM) was 0.213 and the relative viability (HCC-827; first compound 2.53 µM) was 0.179. For the same molecule, the relative viability (HOP-62; first compound 0.08 µM) was 1.01, the relative viability (HOP-62; first compound 0.253 µM) was 0.902 and the relative viability (HOP-62; first compound 0.8 µM) was 1.05. The relative viability (HOP-62; first compound 2.53 µM) was 1.04, the relative viability (LU99A; first compound 0.08 µM) was 1.06 and the relative viability (LU99A; first compound 0.253 µM) was 0.879. The relative viability (LU99A; first compound 0.8 µM) was 1.06, the relative viability (LU99A; first compound 2.53 µM) was 1.04 and the relative viability (NCI-H1355; first compound 0.08 µM) was 1.06. For the same molecule, the relative viability (NCI-H1355; first compound 0.253 µM) was 0.8, the relative viability (NCI-H1355; first compound 0.8 µM) was 0.95 and the relative viability (NCI-H1355; first compound 2.53 µM) was 0.909. It also gave a relative viability (NCI-H1666; first compound 0.08 µM) of 0.768, a relative viability (NCI-H1666; first compound 0.253 µM) of 0.554 and a relative viability (NCI-H1666; first compound 0.8 µM) of 0.595. The relative viability (NCI-H1666; first compound 2.53 µM) was 0.62, the relative viability (NCI-H1792; first compound 0.08 µM) was 0.927 and the relative viability (NCI-H1792; first compound 0.253 µM) was 0.756. It also gave a relative viability (NCI-H1792; first compound 0.8 µM) of 0.862, a relative viability (NCI-H1792; first compound 2.53 µM) of 0.866 and a relative viability (NCI-H1975; first compound 0.08 µM) of 1.01. It also gave a relative viability (NCI-H1975; first compound 0.253 µM) of 0.9, a relative viability (NCI-H1975; first compound 0.8 µM) of 0.694 and a relative viability (NCI-H1975; first compound 2.53 µM) of 0.558. The relative viability (NCI-H2170; first compound 0.08 µM) was 0.298, the relative viability (NCI-H2170; first compound 0.253 µM) was 0.262 and the relative viability (NCI-H2170; first compound 0.8 µM) was 0.279. It also gave a relative viability (NCI-H2170; first compound 2.53 µM) of 0.32, a relative viability (NCI-H23; first compound 0.08 µM) of 1.14 and a relative viability (NCI-H23; first compound 0.253 µM) of 1.02. It also gave a relative viability (NCI-H23; first compound 0.8 µM) of 1.07, a relative viability (NCI-H23; first compound 2.53 µM) of 1.11 and a relative viability (NCI-H2405; first compound 0.08 µM) of 1.11. For the same molecule, the relative viability (NCI-H2405; first compound 0.253 µM) was 1.01, the relative viability (NCI-H2405; first compound 0.8 µM) was 0.741 and the relative viability (NCI-H2405; first compound 2.53 µM) was 0.523. For the same molecule, the relative viability (NCI-H3122; first compound 0.08 µM) was 0.977, the relative viability (NCI-H3122; first compound 0.253 µM) was 0.933 and the relative viability (NCI-H3122; first compound 0.8 µM) was 0.997. The relative viability (NCI-H3122; first compound 2.53 µM) was 1.03, the relative viability (NCI-H322M; first compound 0.08 µM) was 0.575 and the relative viability (NCI-H322M; first compound 0.253 µM) was 0.565. It also gave a relative viability (NCI-H322M; first compound 0.8 µM) of 0.594, a relative viability (NCI-H322M; first compound 2.53 µM) of 0.555 and a relative viability (NCI-H358; first compound 0.08 µM) of 0.43. For the same molecule, the relative viability (NCI-H358; first compound 0.253 µM) was 0.49, the relative viability (NCI-H358; first compound 0.8 µM) was 0.412 and the relative viability (NCI-H358; first compound 2.53 µM) was 0.401. The relative viability (NCI-H520; first compound 0.08 µM) was 0.962, the relative viability (NCI-H520; first compound 0.253 µM) was 0.823 and the relative viability (NCI-H520; first compound 0.8 µM) was 0.93. It also gave a relative viability (NCI-H520; first compound 2.53 µM) of 0.891, a relative viability (NCI-H596; first compound 0.08 µM) of 1.04 and a relative viability (NCI-H596; first compound 0.253 µM) of 0.994. For the same molecule, the relative viability (NCI-H596; first compound 0.8 µM) was 1.09, the relative viability (NCI-H596; first compound 2.53 µM) was 1.02 and the relative viability (NCI-H647; first compound 0.08 µM) was 1.19. It also gave a relative viability (NCI-H647; first compound 0.253 µM) of 0.838, a relative viability (NCI-H647; first compound 0.8 µM) of 1.02 and a relative viability (NCI-H647; first compound 2.53 µM) of 0.936. It also gave a relative viability (NCI-H727; first compound 0.08 µM) of 0.822, a relative viability (NCI-H727; first compound 0.253 µM) of 0.882 and a relative viability (NCI-H727; first compound 0.8 µM) of 0.765. It also gave a relative viability (NCI-H727; first compound 2.53 µM) of 0.782, a relative viability (NCI-H838; first compound 0.08 µM) of 1.12 and a relative viability (NCI-H838; first compound 0.253 µM) of 0.858. For the same molecule, the relative viability (NCI-H838; first compound 0.8 µM) was 1.11, the relative viability (NCI-H838; first compound 2.53 µM) was 1.27 and the relative viability (PC-14; first compound 0.08 µM) was 0.352. It also gave a relative viability (PC-14; first compound 0.253 µM) of 0.29, a relative viability (PC-14; first compound 0.8 µM) of 0.277 and a relative viability (PC-14; first compound 2.53 µM) of 0.38. The relative viability (UMC-11; first compound 0.08 µM) was 1.22, the relative viability (UMC-11; first compound 0.253 µM) was 0.7 and the relative viability (UMC-11; first compound 0.8 µM) was 0.697. For the same molecule, the relative viability (UMC-11; first compound 2.53 µM) was 1.09.
